The values that follow come from US12280132B2, “Skin care composition” (The Procter & Gamble Company, priority 2021, dated 2025).

The conditions of series [1]: Table 7, hydrotropes; cited from earlier work.
The nature of series [2]: HCA Crystallization, freeze/thaw temperature cycling. The settings on record: Table 7; hydrotrope at stated level in 0.5% 4-HCA composition, formula pH 3.8. Format: physicochemical. An excerpt:
This method provides a way to determine HCA solubility in a composition by observing HCA crystals in situ. The method involves cycling the temperature of a test sample between freezing and thawing to imitate environmental conditions experienced by a skin care composition at an accelerated rate. This type of accelerated aging is commonly used in cosmetic product stability testing. HCA crystals can be detected using conventional means such as visual observation and microscopy.
A bulk sample of at least 10 g (e.g., 20 g-60 g) of the composition to be tested is placed in a suitable container that enables visual observation of the test sample (e.g., transparent plastic or glass jar). The test sample is subjected to 1 month of freeze/thaw temperature cycling to simulate environmental conditions that a skin care product may experience during shipping and storage. This is sometimes referred to as accelerated aging. The temperature cycling involves a 1-week freeze cycle at −7° C., followed by a 1-week thaw cycle at 25° C., and then repeating this freeze/cycle for a total temperature cycling time of 1 month.
Upon completion of the accelerated aging process (i.e., 1 month of temperature cycling), transparent test samples are visually inspected in-situ in the transparent container to determine if HCA crystallization/precipitation occurred. For opaque and translucent samples, the entire test sample is removed from the container and transferred to a suitable transparent substrate (e.g., plastic film or glass plate) and formed into a thin film of no more than 1 mm thickness. The sample is covered with a second transparent substrate to inhibit the loss of volatile ingredients during inspection. A light source (e.g., LED lamp or the like) is used to backlight the sample to aid in visual inspection. HCA crystals will generally appear as a precipitate in the composition visible to the naked eye when observed by someone with 20/20 vision from 45 cm away. Any precipitate identified during visual observation may be further evaluated using a microscope capable of providing fluorescent birefringence observation with cross-polarized light to identify anisotropic crystals. Any anisotropic crystal that has a longest dimension of greater than 0.1 mm is identified as an HCA crystal and the total number of HCA crystals is recorded. A test sample that contains no more than 1 HCA crystal is considered to be “free of HCA crystals” and is recorded as a “pass.” A test sample that contains more than 1 HCA crystal, is recorded as a “fail.”
While it is desirable to formulate HCA containing compositions at lower pH to reduce 4-VP production and yellowing, the solubility of the HCA at low pH may not be sufficient for it to be added at levels needed for an effective skin care active.
The test compositions shown in Table 8 were subjected to 2 freeze/thaw cycles at −7C/25C for 1 week/1 week, totaling one month of temperature cycling.
The test compositions are shown below in Table 9. The test compositions were subjected to 2 freeze/thaw cycles at −7C/25C and 1 week/1 week, followed by a 90-day rest period at 25° C. After completion of the incubation period, the compositions were examined for the presence of HCA crystals, as described above.

The nature of series [3]: Color method: change in yellowness (Δb*) after accelerated aging. The format is physicochemical. The text has this:
This method can be used to determine the change in color of a product, material, or target portion of skin. A spectrophotometer (e.g., Spectrophotometer CM-3600A, Konica Minolta, Japan, or equivalent) is used to measure spectrometric data for CIE (International Commission on Illumination) specified illuminating and viewing conditions, and compute the associated tristimulus values, XYZ, based on CIE observer and a CIE illuminant standards. The ASTM standard for obtaining spectrometric data for Object-Color Evaluation is ASTM E1164-12(2017)el with the values and procedures for computing CIE tristimulus values from spectrometric data outlined in ASTM […]. The CIELAB color scale, also referred to as L*a*b*, are calculated from the tristimulus values as defined in ASTM […]. The L* denotes the sample's perceptual lightness. […] Portion samples are evaluated using a 10 mm path length in a plastic cell (e.g., CM-A131, Konica Minolta, Japan or equivalent), reflectance measurement, a 25.4 mm aperture opening at the specimen surface, and specular component excluded conditions with a standard white background. […] Synergy factor is calculated by dividing the observed value by the expected value. […]

Consider `O=C(O)c1cccc(O)c1O` [2,3-Dihydroxybenzoic acid], for which the pKA in series [1] was 2.56. In series [2], the Crystallization entry was “Pass (A test sample that contains no more than 1 HCA crystal is considered to be “free of HCA crystals” and is recorded as a “pass.”)”.

With `O=C(O)c1ccc(O)cc1O` [2,4-Dihydroxybenzoic Acid], the Crystallization entry in series [2] is “Pass (A test sample that contains no more than 1 HCA crystal is considered to be “free of HCA crystals” and is recorded as a “pass.”)”.

As to `O=C(O)c1ccc(O)c(O)c1` [3,4-Dihydroxybenzoic Acid, reference compound], in series [1], the pKA is given as 4.16. For the same compound, the Crystallization result in series [2] was “Fail (A test sample that contains more than 1 HCA crystal, is recorded as a “fail.”)”.

Regarding `COc1cccc(C(=O)O)c1O` [3-Methoxysalicylic acid], the pKA in series [1] is recorded as 2.55. Also, the Crystallization entry in series [2] was “Pass (A test sample that contains no more than 1 HCA crystal is considered to be “free of HCA crystals” and is recorded as a “pass.”)”.

Turning to `O=C([O-])C=Cc1ccccc1.[Na+]` [Sodium Cinnamate, reference compound], the Crystallization entry in series [2] is “Fail (A test sample that contains more than 1 HCA crystal, is recorded as a “fail.”)”.

Regarding `O=C([O-])c1ccccc1O.[Na+]` [Sodium salicylate], in series [2], the Crystallization result is “Pass (A test sample that contains no more than 1 HCA crystal is considered to be “free of HCA crystals” and is recorded as a “pass.”)”.

With `O=S([O-])S(=O)(=O)[O-].[Na+].[Na+]` [sodium metabisulfite], the “enhancement of effect of the oxygen quenching reducing agent at low pH vs. neutral pH” value is reported as 240% in series [3] (3M40C) and 20% in series [3] (3W50C (printed 3WSOC)).
